“And” between values parts separate entries of the source, which are not always exact repeats. Equal values may be shown once.
System: KMO
Test: KMO activity assay: L-Kynurenine hydroxylation to 3-Hydroxy-Kynurenine, quantified by LC/MS
Type: biochemical
Conditions: compound at 10 uM, footnote: some portion of activity of amides may be due to contribution of acid precursor
Method: A generalized procedure for monitoring L-Kynurenine (KYN) hydroxylation to form product 3-Hydroxy-Kynurenine (3OH-KYN) by LC/MS is described below. Product is quantified by multiple reaction monitoring using MS.
A method of monitoring L-Kynurenine (KYN) hydroxylation to form product 3-Hydroxy-Kynurenine (3OH-KYN) by LC/MS is described below. Product is quantified by multiple reaction monitoring.
• Compound: Stock concentrations: 10 mM in 100% DMSO • Enzyme: KMO enzyme prepared at Evotec via mitochondria isolation from CHO-GST HIS KMO cells • Substrate: L-Kynurenine (Sigma: Cat #K3750) • [stock concentration: 10 mM in 100 mM potassium phosphate buffer, pH 7.4]
A method of monitoring L-Kynurenine (KYN) hydroxylation to form 3-Hydroxy-Kynurenine (3OH-KYN) by LC/MS is described. Product is quantified by multiple reaction monitoring (MRM method).

Row | SMILES | % Inhibition at 10 uM | % Inhibition at 10 uM (10 µM)
1 | Cl.O=C(Nc1cccc(N2CCOCC2)c1)c1cc(-c2ccc(Cl)c(Cl)c2)ncn1 [6-(3,4-Dichloro-phenyl)-pyrimidine-4-carboxylic acid (3-morpholin-4-yl-phenyl)-amide hydrochloride salt] | 99.76% | 
2 | O=C(Nc1cccc(N2CCOCC2)c1)c1cc(-c2ccc(Cl)c(Cl)c2)ncn1 [6-(3,4-Dichloro-phenyl)-pyrimidine-4-carboxylic acid (3-morpholin-4-yl-phenyl)-amide] | 100.15% | 
3 | Cl.O=C(Nc1cccc(C2CNCCN2)c1)c1cc(-c2ccc(Cl)c(Cl)c2)ncn1 (stereo not drawn) [6-(3,4-Dichloro-phenyl)-pyrimidine-4-carboxylic acid (3-piperazin-2-yl-phenyl)-amide hydrochloride salt] | 96.58% | 
4 | Cl.O=C(Nc1cccc(C2CCNCC2)c1)c1cc(-c2ccc(Cl)c(Cl)c2)ncn1 [6-(3,4-Dichloro-phenyl)-pyrimidine-4-carboxylic acid (3-piperidin-4-yl-phenyl)-amide hydrochloride salt] | 69.06% | 
5 | O=C(Nc1cc(C(F)(F)F)no1)c1cc(-c2ccc(Cl)c(Cl)c2)ncn1 [6-(3,4-Dichloro-phenyl)-pyrimidine-4-carboxylic acid (3-trifluoromethyl-isoxazol-5-yl)-amide] | 101.875% | 
6 | CN(C)C1(CNC(=O)c2cc(-c3ccc(Cl)c(Cl)c3)ncn2)CCOCC1.Cl [6-(3,4-Dichloro-phenyl)-pyrimidine-4-carboxylic acid (4-dimethylamino-tetrahydro-pyran-4-ylmethyl)-amide hydrochloride salt] | 96.81% | 
7 | O=C(NCC1(O)CCOCC1)c1cc(-c2ccc(Cl)c(Cl)c2)ncn1 [6-(3,4-Dichloro-phenyl)-pyrimidine-4-carboxylic acid (4-hydroxy-tetrahydro-pyran-4-ylmethyl)-amide] | 74.49% | 
8 | Cl.O=C(Nc1ccc(N2CCOCC2)cc1)c1cc(-c2ccc(Cl)c(Cl)c2)ncn1 [6-(3,4-Dichloro-phenyl)-pyrimidine-4-carboxylic acid (4-morpholin-4-yl-phenyl)-amide hydrochloride salt] | 76.95% | 
9 | O=C(Nc1ccc(N2CCOCC2)cc1)c1cc(-c2ccc(Cl)c(Cl)c2)ncn1 [6-(3,4-Dichloro-phenyl)-pyrimidine-4-carboxylic acid (4-morpholin-4-yl-phenyl)-amide] | 101.19% | 
10 | Cl.O=C(Nc1ccc(N2CCNCC2)cc1)c1cc(-c2ccc(Cl)c(Cl)c2)ncn1 [6-(3,4-Dichloro-phenyl)-pyrimidine-4-carboxylic acid (4-piperazin-1-yl-phenyl)-amide hydrochloride salt] | 93.13% | 
11 | O=C(Nc1ccc(N2CCNCC2)cc1)c1cc(-c2ccc(Cl)c(Cl)c2)ncn1 [6-(3,4-Dichloro-phenyl)-pyrimidine-4-carboxylic acid (4-piperazin-1-yl-phenyl)-amide] | 43.46% | 
12 | Cc1nnc(CNC(=O)c2cc(-c3ccc(Cl)c(Cl)c3)ncn2)o1 [6-(3,4-Dichloro-phenyl)-pyrimidine-4-carboxylic acid (5-methyl-[1,3,4]oxadiazol-2-ylmethyl)-amide] | 100.815% | 
13 | O=C1CCC(NC(=O)c2cc(-c3ccc(Cl)c(Cl)c3)ncn2)N1 (stereo not drawn) [6-(3,4-Dichloro-phenyl)-pyrimidine-4-carboxylic acid (5-oxo-pyrrolidin-2-yl)-amide] | 93.08% | 
14 | O=C1CC(NC(=O)c2cc(-c3ccc(Cl)c(Cl)c3)ncn2)CN1 (stereo not drawn) [6-(3,4-Dichloro-phenyl)-pyrimidine-4-carboxylic acid (5-oxo-pyrrolidin-3-yl)-amide] | 83.73% | 
15 | CC(C)(C)c1nnc(NC(=O)c2cc(-c3ccc(Cl)c(Cl)c3)ncn2)o1 [6-(3,4-Dichloro-phenyl)-pyrimidine-4-carboxylic acid (5-tert-butyl-[1,3,4]oxadiazol-2-yl)-amide] | 101.4% | 
16 | O=C(Nc1nnc(C(F)(F)F)o1)c1cc(-c2ccc(Cl)c(Cl)c2)ncn1 [6-(3,4-Dichloro-phenyl)-pyrimidine-4-carboxylic acid (5-trifluoromethyl-[1,3,4]oxadiazol-2-yl)-amide] | 102.78% | 
17 | Cc1ccc(NC(=O)c2cc(-c3ccc(Cl)c(Cl)c3)ncn2)nn1 [6-(3,4-Dichloro-phenyl)-pyrimidine-4-carboxylic acid (6-methyl-pyridazin-3-yl)-amide] | 77.125% | 
18 | Cl.O=C(Nc1ccc(N2CCNCC2)nc1)c1cc(-c2ccc(Cl)c(Cl)c2)ncn1 [6-(3,4-Dichloro-phenyl)-pyrimidine-4-carboxylic acid (6-piperazin-1-yl-pyridin-3-yl)-amide hydrochloride salt] | 87.82% | 

Row | SMILES | % Inhibition at 10 uM | % Inhibition at 10 uM (10 µM)
19 | O=C(N[C@H]1c2ccccc2C[C@H]1O)c1cc(-c2ccc(Cl)c(Cl)c2)ncn1 [6-(3,4-Dichloro-phenyl)-pyrimidine-4-carboxylic acid ((1S,2R)-2-hydroxy-indan-1-yl)-amide] | 97.78% | 
20 | C[C@@H](NC(=O)c1cc(-c2ccc(Cl)c(Cl)c2)ncn1)c1ccccc1 [6-(3,4-Dichloro-phenyl)-pyrimidine-4-carboxylic acid ((R)-1-phenyl-ethyl)-amide] | 101.25% | 
21 | C[C@@H](NC(=O)c1cc(-c2ccc(Cl)c(Cl)c2)ncn1)c1cccnc1 [6-(3,4-Dichloro-phenyl)-pyrimidine-4-carboxylic acid ((R)-1-pyridin-3-yl-ethyl)-amide] | 90.86% | 
22 | C[C@H](CO)NC(=O)c1cc(-c2ccc(Cl)c(Cl)c2)ncn1 [6-(3,4-Dichloro-phenyl)-pyrimidine-4-carboxylic acid ((R)-2-hydroxy-1-methyl-ethyl)-amide] | 97.775% | 
23 | CC(NC(=O)c1cc(-c2ccc(Cl)c(Cl)c2)ncn1)[C@@H](C)O (stereo partly drawn) [6-(3,4-Dichloro-phenyl)-pyrimidine-4-carboxylic acid ((R)-2-hydroxy-1-methyl-propyl)-amide] | 66.43% | 
24 | C[C@@H](O)CNC(=O)c1cc(-c2ccc(Cl)c(Cl)c2)ncn1 [6-(3,4-Dichloro-phenyl)-pyrimidine-4-carboxylic acid ((R)-2-hydroxy-propyl)-amide] | 100.71% | 
25 | CC(=O)N1CC[C@H](NC(=O)c2cc(-c3ccc(Cl)c(Cl)c3)ncn2)C1 [6-(3,4-Dichloro-phenyl)-pyrimidine-4-carboxylic acid ((S)-1-acetyl-pyrrolidin-3-yl)-amide] |  | 84.87% and 98.54%
26 | C[C@H](NC(=O)c1cc(-c2ccc(Cl)c(Cl)c2)ncn1)C(N)=O [6-(3,4-Dichloro-phenyl)-pyrimidine-4-carboxylic acid ((S)-1-carbamoyl-ethyl)-amide] | 47.73% | 
27 | CC[C@H](NC(=O)c1cc(-c2ccc(Cl)c(Cl)c2)ncn1)C(N)=O [6-(3,4-Dichloro-phenyl)-pyrimidine-4-carboxylic acid ((S)-1-carbamoyl-propyl)-amide] | 87.6% | 
28 | C[C@H](NC(=O)c1cc(-c2ccc(Cl)c(Cl)c2)ncn1)c1ccccc1 [6-(3,4-Dichloro-phenyl)-pyrimidine-4-carboxylic acid ((S)-1-phenyl-ethyl)-amide] | 102.29% | 
29 | C[C@H](NC(=O)c1cc(-c2ccc(Cl)c(Cl)c2)ncn1)c1cccnc1 [6-(3,4-Dichloro-phenyl)-pyrimidine-4-carboxylic acid ((S)-1-pyridin-3-yl-ethyl)-amide] | 85.1% | 
30 | C[C@H](NC(=O)c1cc(-c2ccc(Cl)c(Cl)c2)ncn1)c1ccncc1 [6-(3,4-Dichloro-phenyl)-pyrimidine-4-carboxylic acid ((S)-1-pyridin-4-yl-ethyl)-amide] | 91.79% | 
31 | C[C@@H](CO)NC(=O)c1cc(-c2ccc(Cl)c(Cl)c2)ncn1 [6-(3,4-Dichloro-phenyl)-pyrimidine-4-carboxylic acid ((S)-2-hydroxy-1-methyl-ethyl)-amide] | 99.59% | 
32 | C[C@H](O)CNC(=O)c1cc(-c2ccc(Cl)c(Cl)c2)ncn1 [6-(3,4-Dichloro-phenyl)-pyrimidine-4-carboxylic acid ((S)-2-hydroxy-propyl)-amide] | 86.83% | 
33 | Cl.O=C(N[C@@H]1CCNC1)c1cc(-c2ccc(Cl)c(Cl)c2)ncn1 [6-(3,4-Dichloro-phenyl)-pyrimidine-4-carboxylic acid (R)-pyrrolidin-3-ylamide hydrochloride salt] | 95.94% | 
34 | Cl.O=C(N[C@H]1CCNC1)c1cc(-c2ccc(Cl)c(Cl)c2)ncn1 [6-(3,4-Dichloro-phenyl)-pyrimidine-4-carboxylic acid (S)-pyrrolidin-3-ylamide hydrochloride salt] | 89.355% | 
35 | O=C(N[C@@H]1CCOC1)c1cc(-c2ccc(Cl)c(Cl)c2)ncn1 [6-(3,4-Dichloro-phenyl)-pyrimidine-4-carboxylic acid (tetrahydro-furan-3R-yl)-amide] | 41.5% | 
36 | O=C(N[C@H]1CCOC1)c1cc(-c2ccc(Cl)c(Cl)c2)ncn1 [6-(3,4-Dichloro-phenyl)-pyrimidine-4-carboxylic acid (tetrahydro-furan-3S-yl)-amide] | 53.41% | 

From patent US9428464B2, “Kynurenine-3-monooxygenase inhibitors, pharmaceutical compositions, and methods of use thereof” (CHDI Foundation, Inc., priority 2011, dated 2016)
